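Tested at 5 concentrations; 48 h exposure; 96-well plates; endpoints linearly interpolated, else capped at highest concentration. GI50 marks 50% less growth. TGI: total growth inhibition.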
Legend:
Assay in all cases: inhibition of tumour cell growth, NCI panel, 48 h
786-0 renal = system: 786-0 renal
HOP-62 NSCLC = system: HOP-62 NSCLC
MCF7 breast = system: MCF7 breast
OVCAR-5 ovarian = system: OVCAR-5 ovarian
RXF 393 renal = system: RXF 393 renal
SK-MEL-28 melanoma = system: SK-MEL-28 melanoma
SNB-19 CNS = system: SNB-19 CNS
UACC-257 melanoma = system: UACC-257 melanoma

Structure (SMILES)	GI50 (786-0 renal) [µM]	TGI (786-0 renal) [µM]	GI50 (HOP-62 NSCLC) [µM]	TGI (HOP-62 NSCLC) [µM]	GI50 (MCF7 breast) [µM]	TGI (MCF7 breast) [µM]	GI50 (OVCAR-5 ovarian) [µM]	TGI (OVCAR-5 ovarian) [µM]	GI50 (RXF 393 renal) [µM]	TGI (RXF 393 renal) [µM]	GI50 (SK-MEL-28 melanoma) [µM]	TGI (SK-MEL-28 melanoma) [µM]	GI50 (SNB-19 CNS) [µM]	TGI (SNB-19 CNS) [µM]	GI50 (UACC-257 melanoma) [µM]	TGI (UACC-257 melanoma) [µM]
CN1CCC(=C(c2ccc(Cl)cc2)c2ccccn2)CC1	> 100	> 100	> 100	> 100	> 100	> 100	> 100	> 100	54.5	> 100	86.1	> 100	> 100	> 100	21.5	45.8
Cc1ccc(/C=C(/C#N)n2nnc3cccc(F)c32)cc1	0.384	14.1	1.37	> 100	0.466	16.6	0.673	9.12	0.201	0.563	0.902	18.1	0.466	17.4	1.13	39.9
CN1C(=O)[C@@H](CC2CCCC2)N(C2CCCC2)c2nc(Nc3cc(Cl)c(O)c(Cl)c3)ncc21	15.2	47.2	27.9	> 100	15.2	> 100	27.7	> 100	13.5	52	22.6	> 100	28.3	> 100	25.1	> 100
CN(C)C/C=C/C(=O)Nc1ccc(C(=O)Nc2cccc(Nc3ncc(Cl)c(-c4c[nH]c5ccccc45)n3)c2)cc1	0.0441	–	0.0697	> 100	< 0.0116	–	0.0531	–	0.0157	0.0397	0.0215	0.532	0.0272	> 35.3	0.0216	> 100
CC(=O)NC(CCc1ccc(Cl)c(Cl)c1)c1cccc(O)c(=O)c1 (centres undefined)	0.591	12	0.393	12.2	0.412	37.4	1.58	21.8	0.722	14.9	1.07	12.3	0.919	18.8	0.649	4.4
Cc1cc(NS(=O)(=O)c2ccc(-c3cnc(C4CC4)o3)cc2)ccc1Cl	0.605	17.8	0.313	17	0.0708	12.2	0.748	15	0.173	3.13	2.87	20	0.362	16.3	1.77	18.2
CCN(CC)Cc1cc(Nc2ccnc3ccc(OC)cc23)ccc1O	4.67	18.8	3.8	18.4	2.71	9.62	3.95	28	2.79	10.9	3.4	10.4	8.4	> 100	–	–
CCN1C[C@@H](C)n2c(c(O)c3c(=O)n(Cc4ccc(F)c(Cl)c4)nc(C(=O)NC)c32)C1=O	2.91	8.4	3.16	24.7	3.26	65.7	3.86	> 100	–	–	2.69	7.17	3.37	> 100	2.32	6.77
CC(=O)CCC[C@@H](C)[C@@H]1O[C@H]([C@@]2(C)CCC(=O)O2)CC2[C@H]1OC(=O)C21CC1 (some centres undefined)	> 100	> 100	–	–	22.3	> 100	> 100	> 100	> 100	> 100	> 100	> 100	> 100	> 100	50.7	> 100
O=C(CC(O)(C(F)(F)F)C(F)(F)F)c1cccs1	–	> 10	–	> 10	–	> 10	–	–	–	–	–	> 10	–	> 10	–	> 10
O=C1CC[C@@H](S(=O)(=O)c2ccccc2)[C@H](/C=C/c2ccccc2)O1	–	> 100	–	> 100	–	–	–	> 100	–	> 100	–	> 100	–	> 100	–	> 100
CCCCNC(=O)CC1=C(C)/C(=C/c2[nH]c(-c3ccc[nH]3)cc2OC)N=C1C	2.04	4.64	2.5	9.76	2.7	9.39	3.19	34.1	3.29	11.6	–	–	4.09	30.1	2.26	4.54
COc1ccc(/C=C/C(=O)C(=O)/C=C/c2ccc(OC)c(OC)c2)cc1OC	2.28	7.88	6.8	> 100	0.516	9.48	2.5	8.08	1.46	3.04	–	–	3.11	23.3	–	–

Source: PubChem BioAssay (NCI)
